One assay relates to SKOV3 xenograft tumors. The assay can be described thus: SKOV3 subcutaneous xenograft with Cisplatin. In kind it is in vivo, BALB/c nude mice. The conditions noted are these: Lv-shTRDMT1 infected SKOV3 xenografts, Cisplatin 5 mg/kg intratumoral twice per week for 3 weeks. The method, then:
FIGS. 5A-5E show reduced TRDMT1 expression renders Cisplatin sensitization in vivo. (FIG. 5A) Lv-shTRDMT1 or Lv-NC transfected SKOV3 cells were subcutaneously injected into BALB/c nude mice, a week after injection, Cisplatin (5 mg/kg) or saline was injected into the center of the xenograft tumors twice per week for 3 consecutive weeks. (FIG. 5B) Representative images of tumors in xenografts transfected with LV-shTRDMT1/LV-NC with saline or Cisplatin treatment. (FIG. 5C) Tumor size of SKOV3 subcutaneous xenograft tumors (n=6, Mean±SD). (FIG. 5D) WB for TRDMT1 in tumor tissues collected from mice in each group (Tissues from six tumors in the same group were mixed into one sample). (FIG. 5E) IHC of TRDMT1 and KI-67 expression in ovarian cancer tissues of patients who were platinum-sensitive (PFS>6) and −resistant (PFS<6) Staining was assessed and scored on a scale of 0 (<5% staining) to 4 (>75% staining) in G. Quantification of IHC staining (n=38, PFS>6, n=24; PFS<6, n=14) was shown.
SKOV3 cells (1.0×10^6) were transfected with LV-TRDMT1-RNAi (gcAGAAGA AATTCACAGGAAA, SEQ ID NO: 15) or LV-NC-RNAi and injected […] into female nude mice which were then randomly divided into 4 groups (6 animals per condition). […] PFS was calculated from the time of surgery to the time of progression or recurrence. […]

Assay [1] has as its system cancer cell lines (HST578, MBAMD231, HCC1937, HCC1954). In words: Cell survival (colony) assay with TRDMT1i alone, Example 19. In kind it is cell-based. The conditions noted are these: HCC1954 (HRD, high SYCP2). As to the method:
FIGS. 14A-14C show TRDMT1i alone reduce cancer cell survival in a dose-dependent manner. (FIG. 14A) Survival rate of HR proficient (HR+) HST578 cancer cells with and without siBRCA1 and/or TRDMT1i YW-1842 at indicated dose. The survival rate of these cells was analyzed (n=3, Mean±SD). (FIG. 14B) Survival rate of MBAMD231 (HR+) and HCC1937 (HRD) cells. The survival rate of these cells was analyzed (n=3, Mean±SD). (FIG. 14C) Cell survival rate in different cancer cell lines via colony-forming assay with the treatment of Imatinib at indicated dose (n=3, mean+/−S.D.). Cell lines are listed in order with the expression level from SYCP2high to SYCP2low.
HCC1500, HCC1954, BT549, MCF7 and MDAMB468 were cultured in Roswell Park Memorial Institute (RPMI) 1640 Medium (Sigma, R8758) with 10% (vol/vol) fetal bovine serum (FBS, XY Cell Culture, FBS-500) at 37° C., 5% CO2. siBRCA1 (L-003461-00, Dharmacon) was transfected with Lipofectamine RNAiMax (Invitrogen; Carlsbad, CA, USA). PARPi Olaparib (AZD2281/Ku-0059436, Sellekchem, S1060) and Pol theta inhibitor Novobiocin (Sigma) were used.
Cells were seeded in each 6-cm dish and cultured as described above. They were treated with drugs with indicated dose in medium after seeding. After 7-10 days, colonies were fixed and stained with 0.3% crystal violet in methanol, and the number of colonies was counted manually.

Assay [2] concerns MD-MBA-231 xenograft tumors. The assay can be described thus: MDA-MB-231 xenograft with PARPi. To be noted: injection every 2 days after day 7, 23 days. In kind it is in vivo, BALB/c nude mice. As to the method: FIGS. 9A-9G show SYCP2 is required for efficient homologous recombination. (FIG. 9A) Cell survival rate of HeLa and MDAMB231 via colony forming assay with the treatment of 2 μM, 4 μm, 6 μM, 8 μM, 16 μM of Olaparib (n=3, mean+/−S.D.). Western blot of SYCP2 overexpression in HeLa and MDA-MB-231 is shown in the left. (FIG. 9B) Cell survival rate of HeLa via colony forming assay with the treatment of 1 μM, 2 μm, 3 μM of Olaparib (n=3, mean+/−S.D.). Western blot of SYCP2 knockdown in Hela is shown in the left. (FIG. 9C) Scheme of Xenograft design using intraperitoneal injection of MBA-MD-231 into successful developed mouse model with virus-associated SYCP2 knockdown and control groups is shown in the left. PARPi was injected every 2 days after day 7. The graph is shown the recorded tumor size of each tested group with PARPi treatment or saline at each treatment day. (FIG. 9D). Numbers of SYCP2 IR induced foci (IRIF) colocalizing with γH2AX in MDAMB231 and HeLa cells. Cells were fixed and counted for foci numbers after 2 Gy IR followed up indicated recovery time (t=0 hr, 12 hr, 24 hr, and 48 hr) (n=30, mean+/−S.D). (FIG. 9E). […] Fold increase of mean intensity at sites of irradiation compared to mean intensity of nucleus expression is quantified (n=5, mean+/−SD). […] Numbers of RAD51 IRIF in siCtrl and siSYCP2 treated MDAMB231 and U2OS cells after 2 Gy IR and 1 hour recovery were counted (n=20, +/−SD). […]

Molecules are shown by their SMILES.

In the case of `N.N.[Cl][Pt][Cl]` [cisplatin], in the assay on SKOV3 xenograft tumors, the xenograft tumor size result was “grew statistically smaller”.

For the compound `O=C(c1cc(Cc2n[nH]c(=O)c3ccccc23)ccc1F)N1CCN(C(=O)C2CC2)CC1` [olaparib], the “sensitivity of HCC1954 to PARPi” value in assay [1] is listed as “relatively resistant”. Moreover, the “tumor growth reduction by PARPi, SYCP2 knockdown versus control tumors” value in assay [2] (LV-siSYCP2 tumors) is recorded as “more than control tumors”. Also, the “tumor growth, control tumors” value in assay [2] (siControl tumors) was “reduced the growth of control tumors”.

The record behind these values is patent US12496302B2, “Compositions and methods for the treatment and diagnosis of cancer” (The General Hospital Corporation, priority 2020, dated 2025).
